Results on two compounds are retold here after article PMC7407272, “Induction of Lysosome Membrane Permeabilization as a Therapeutic Strategy to Target Pancreatic Cancer Stem Cells” (Cancers, 2020).

The subject of assay [1] is sphere-derived PDAC2 cells. As to the kind of experiment: Tumor initiating capacity of pre-treated cells injected subcutaneously. The assay is classed as in vivo, NU-Foxn1nu nude mice. Particulars: cells treated 3 days with 0.1 µg/mL GEM or compound at 1.25 µM, then injected subcutaneously. The method, then: Female 6- to 8-week-old NU-Foxn1nu nude mice (Envigo, Spain) were subcutaneously injected with control or pre-treated 1 × 10^4 PDAC cells in 50 µL of Matrigel^TM (Corning). Tumor growth was monitored bi-weekly for up to 10 weeks. For Siramesine experiments, mice were subcutaneously implanted with PDAC1 and PDAC3 PDXs. After 4 weeks of tumor growth, mice were randomized into treatment groups (5 mice per group). Mice were treated with Siramesine twice a week (30 mg/kg by oral gavage formulated in 0.5% methylcellulose 15 cP in 0.9% NaCl solution) for ~4 weeks. Gemcitabine (GEMZAR®, Eli Lilly, Indianapolis, IN, USA) was administered twice a week (125 mg/kg i.p.) for ~4 weeks. Tumor volumes (mm^3) were determined twice per week using a digital caliper. Mice were sacrificed at 24 days post treatment initiation and tumors were extracted and analyzed by flow cytometry as described above. For second generation tumor formation, 1000 and 100 cells of indicated treatment groups were resuspended in Matrigel ^TM and injected subcutaneously in recipient NU-Foxn1nu nude mice and tumor formation was monitored for 10 weeks. Mice were housed according to institutional guidelines and all experiments were performed in compliance with the institutional guidelines for the welfare of experimental animals approved by the Universidad Autónoma de Madrid Ethics Committee (CEI 60-1057-A068) or by the Instituto de Salud Carlos III Ethics Committee (CBA12_2014-v3) and La Comunidad de Madrid (PROEX 335/14 or PROEX 53/14) and in accordance with the guidelines for Ethical Conduct in the Care and Use of Animals as stated in The International Guiding Principles for Biomedical Research involving Animals, developed by the Council for International Organizations of Medical Sciences (CIOMS).

The target in assay [2] is T1, HASPIN (Homo sapiens, UniProt Q8TF76).
T1 sequence (Q8TF76 1-798): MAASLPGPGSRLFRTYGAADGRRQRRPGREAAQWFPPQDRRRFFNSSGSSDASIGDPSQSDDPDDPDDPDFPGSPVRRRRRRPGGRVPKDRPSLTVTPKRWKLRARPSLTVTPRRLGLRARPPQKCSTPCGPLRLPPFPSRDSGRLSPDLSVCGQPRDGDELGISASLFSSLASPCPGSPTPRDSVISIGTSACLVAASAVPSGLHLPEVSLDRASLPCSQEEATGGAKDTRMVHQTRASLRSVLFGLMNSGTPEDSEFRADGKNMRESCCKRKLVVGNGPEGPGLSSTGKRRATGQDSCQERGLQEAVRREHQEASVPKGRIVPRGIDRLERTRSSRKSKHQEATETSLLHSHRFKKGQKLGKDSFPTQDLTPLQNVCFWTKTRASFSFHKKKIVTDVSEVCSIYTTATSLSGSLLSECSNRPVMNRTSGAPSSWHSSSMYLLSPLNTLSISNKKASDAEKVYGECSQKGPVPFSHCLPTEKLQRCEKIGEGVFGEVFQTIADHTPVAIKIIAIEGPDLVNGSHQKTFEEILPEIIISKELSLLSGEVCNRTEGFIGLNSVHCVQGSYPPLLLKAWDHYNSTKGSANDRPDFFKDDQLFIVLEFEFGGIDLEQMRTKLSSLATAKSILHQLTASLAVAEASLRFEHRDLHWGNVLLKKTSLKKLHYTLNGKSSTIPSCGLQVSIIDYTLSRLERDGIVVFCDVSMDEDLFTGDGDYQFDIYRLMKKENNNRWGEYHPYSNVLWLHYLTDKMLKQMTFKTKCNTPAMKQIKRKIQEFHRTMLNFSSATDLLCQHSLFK
As to the kind of experiment: HASPIN ADP GLO kinase assay. The assay is classed as biochemical. The arrangement: purchased ProQinase, Freiburg, Germany. Particulars: 150 μM ATP. On the procedure:
PIM1/3 kinase activities were measured as previously described in Martínez-Gonzalez et al.. HASPIN activity was measured using the commercial ADP GLO assay (Promega), a homogeneous assay measuring ADP accumulation, as a universal product of kinase activity. The assay was done following general manufacturer recommendations and adapting protein to optimal conditions.

In the next assay the target is T2, PCTK3 (Homo sapiens, UniProt Q07002).
T2 construct: purchased DiscoveRx KINOMEscan
In words: KINOMEscan. The conditions noted are these: read-out: % Ctrl. The assay is classed as binding.

The target in another assay is T3, ABL1(T315I)-P (Homo sapiens, UniProt P00519, T315I).
T3 construct: purchased DiscoveRx KINOMEscan
In words: KINOMEscan. Particulars: read-out: % Ctrl. Format: binding.

The target in the next assay is T4, PIKFYVE (Homo sapiens, UniProt Q9Y2I7).
T4 construct: purchased DiscoveRx KINOMEscan
T4 sequence (Q9Y2I7 whole entry): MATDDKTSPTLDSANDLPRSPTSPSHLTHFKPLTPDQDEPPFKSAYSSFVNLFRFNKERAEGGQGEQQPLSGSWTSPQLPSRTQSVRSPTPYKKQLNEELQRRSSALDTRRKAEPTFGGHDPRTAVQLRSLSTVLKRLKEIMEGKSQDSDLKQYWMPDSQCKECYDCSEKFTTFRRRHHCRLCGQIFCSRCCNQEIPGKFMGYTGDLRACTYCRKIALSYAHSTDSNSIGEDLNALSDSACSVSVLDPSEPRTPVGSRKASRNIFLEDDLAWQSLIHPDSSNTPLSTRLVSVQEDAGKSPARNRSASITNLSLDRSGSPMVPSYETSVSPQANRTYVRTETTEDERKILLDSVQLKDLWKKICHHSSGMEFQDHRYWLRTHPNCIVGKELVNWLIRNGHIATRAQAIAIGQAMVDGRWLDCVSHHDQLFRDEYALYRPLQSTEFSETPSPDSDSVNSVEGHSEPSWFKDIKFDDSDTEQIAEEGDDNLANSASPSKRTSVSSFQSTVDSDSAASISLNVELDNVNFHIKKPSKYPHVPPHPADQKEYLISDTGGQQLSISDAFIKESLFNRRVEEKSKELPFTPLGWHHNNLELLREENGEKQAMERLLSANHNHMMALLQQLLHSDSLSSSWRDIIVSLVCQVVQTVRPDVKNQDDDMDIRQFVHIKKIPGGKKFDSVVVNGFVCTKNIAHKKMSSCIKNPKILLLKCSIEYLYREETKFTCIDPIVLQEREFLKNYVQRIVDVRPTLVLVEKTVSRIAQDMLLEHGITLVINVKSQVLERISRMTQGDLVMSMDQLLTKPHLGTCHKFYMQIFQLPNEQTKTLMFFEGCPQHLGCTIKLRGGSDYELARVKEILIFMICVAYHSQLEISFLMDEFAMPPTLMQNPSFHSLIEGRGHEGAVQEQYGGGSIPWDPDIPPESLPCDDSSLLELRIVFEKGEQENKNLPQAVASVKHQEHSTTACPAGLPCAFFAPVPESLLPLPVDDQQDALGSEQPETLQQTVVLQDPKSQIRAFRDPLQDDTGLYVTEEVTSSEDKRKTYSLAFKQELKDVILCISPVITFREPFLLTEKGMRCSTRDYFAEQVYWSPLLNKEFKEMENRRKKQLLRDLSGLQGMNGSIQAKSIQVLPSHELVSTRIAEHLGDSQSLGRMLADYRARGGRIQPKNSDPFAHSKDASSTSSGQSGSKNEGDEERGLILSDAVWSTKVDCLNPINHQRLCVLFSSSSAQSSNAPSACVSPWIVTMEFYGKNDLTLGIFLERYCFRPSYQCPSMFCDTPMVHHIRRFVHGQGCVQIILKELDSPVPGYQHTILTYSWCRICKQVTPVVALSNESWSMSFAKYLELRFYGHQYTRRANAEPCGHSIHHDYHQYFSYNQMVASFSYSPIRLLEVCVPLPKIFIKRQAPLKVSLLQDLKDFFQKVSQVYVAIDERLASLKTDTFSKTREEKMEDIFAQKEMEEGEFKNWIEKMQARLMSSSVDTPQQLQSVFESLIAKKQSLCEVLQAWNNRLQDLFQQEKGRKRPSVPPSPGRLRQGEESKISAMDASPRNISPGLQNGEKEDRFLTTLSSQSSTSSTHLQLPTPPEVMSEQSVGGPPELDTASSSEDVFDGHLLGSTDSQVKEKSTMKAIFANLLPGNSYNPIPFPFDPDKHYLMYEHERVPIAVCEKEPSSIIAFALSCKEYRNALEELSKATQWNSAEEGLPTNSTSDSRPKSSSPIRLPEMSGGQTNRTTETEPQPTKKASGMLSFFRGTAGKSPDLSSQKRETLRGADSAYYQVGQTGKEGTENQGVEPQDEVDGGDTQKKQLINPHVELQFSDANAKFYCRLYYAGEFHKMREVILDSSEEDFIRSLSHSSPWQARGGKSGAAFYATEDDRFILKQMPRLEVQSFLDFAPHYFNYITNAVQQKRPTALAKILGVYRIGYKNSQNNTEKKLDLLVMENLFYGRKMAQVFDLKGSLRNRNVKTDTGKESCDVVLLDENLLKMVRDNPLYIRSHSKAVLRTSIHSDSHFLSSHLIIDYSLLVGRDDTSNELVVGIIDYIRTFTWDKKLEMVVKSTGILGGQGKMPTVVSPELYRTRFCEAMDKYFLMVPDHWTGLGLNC
In words: KINOMEscan. The assay is classed as binding. The conditions noted are these: read-out: % Ctrl.

In a further assay the target is T5, PKAC-alpha (Homo sapiens, UniProt P17612).
T5 construct: purchased DiscoveRx KINOMEscan
In words: KINOMEscan. The assay is classed as binding. The conditions noted are these: read-out: % Ctrl.

The next assay concerns the target T6, HIPK3 (Homo sapiens, UniProt Q9H422).
T6 construct: purchased DiscoveRx KINOMEscan
As to the kind of experiment: KINOMEscan. The conditions noted are these: read-out: % Ctrl. The assay is classed as binding.

A further assay addresses T7, AURKC (Homo sapiens, UniProt Q9UQB9).
T7 construct: purchased DiscoveRx KINOMEscan
As to the kind of experiment: KINOMEscan. Format: binding. Particulars: read-out: % Ctrl.

The target of another assay is T8, PRKCH (Homo sapiens, UniProt P24723).
T8 construct: purchased DiscoveRx KINOMEscan
As to the kind of experiment: KINOMEscan. Particulars: read-out: % Ctrl. The assay is classed as binding.

The next assay addresses T9, RIOK2 (Homo sapiens, UniProt Q9BVS4).
T9 construct: purchased DiscoveRx KINOMEscan
As to the kind of experiment: KINOMEscan. Particulars: read-out: % Ctrl. Format: binding.

In the next assay the target is T10, RSK1(KD1-N-t.) (Homo sapiens, UniProt Q15418).
T10 construct: RSK1(KD1-N-t.); purchased DiscoveRx KINOMEscan
As to the kind of experiment: KINOMEscan. Format: binding. The conditions noted are these: read-out: % Ctrl.

A further assay addresses T11, CLK4 (Homo sapiens, UniProt Q9HAZ1).
T11 construct: purchased DiscoveRx KINOMEscan
In words: KINOMEscan. The assay is classed as binding. Particulars: read-out: % Ctrl.

The target of another assay is T12, TBK1 (Homo sapiens, UniProt Q9UHD2).
T12 construct: purchased DiscoveRx KINOMEscan
As to the kind of experiment: KINOMEscan. Format: binding. Particulars: read-out: % Ctrl.

The next assay deals with T13, TNNI3K (Homo sapiens, UniProt Q59H18).
T13 construct: purchased DiscoveRx KINOMEscan
As to the kind of experiment: KINOMEscan. The assay is classed as binding. The conditions noted are these: read-out: % Ctrl.

In a further assay the target is T14, ULK1 (Homo sapiens, UniProt O75385).
T14 construct: purchased DiscoveRx KINOMEscan
T14 sequence (O75385 whole entry): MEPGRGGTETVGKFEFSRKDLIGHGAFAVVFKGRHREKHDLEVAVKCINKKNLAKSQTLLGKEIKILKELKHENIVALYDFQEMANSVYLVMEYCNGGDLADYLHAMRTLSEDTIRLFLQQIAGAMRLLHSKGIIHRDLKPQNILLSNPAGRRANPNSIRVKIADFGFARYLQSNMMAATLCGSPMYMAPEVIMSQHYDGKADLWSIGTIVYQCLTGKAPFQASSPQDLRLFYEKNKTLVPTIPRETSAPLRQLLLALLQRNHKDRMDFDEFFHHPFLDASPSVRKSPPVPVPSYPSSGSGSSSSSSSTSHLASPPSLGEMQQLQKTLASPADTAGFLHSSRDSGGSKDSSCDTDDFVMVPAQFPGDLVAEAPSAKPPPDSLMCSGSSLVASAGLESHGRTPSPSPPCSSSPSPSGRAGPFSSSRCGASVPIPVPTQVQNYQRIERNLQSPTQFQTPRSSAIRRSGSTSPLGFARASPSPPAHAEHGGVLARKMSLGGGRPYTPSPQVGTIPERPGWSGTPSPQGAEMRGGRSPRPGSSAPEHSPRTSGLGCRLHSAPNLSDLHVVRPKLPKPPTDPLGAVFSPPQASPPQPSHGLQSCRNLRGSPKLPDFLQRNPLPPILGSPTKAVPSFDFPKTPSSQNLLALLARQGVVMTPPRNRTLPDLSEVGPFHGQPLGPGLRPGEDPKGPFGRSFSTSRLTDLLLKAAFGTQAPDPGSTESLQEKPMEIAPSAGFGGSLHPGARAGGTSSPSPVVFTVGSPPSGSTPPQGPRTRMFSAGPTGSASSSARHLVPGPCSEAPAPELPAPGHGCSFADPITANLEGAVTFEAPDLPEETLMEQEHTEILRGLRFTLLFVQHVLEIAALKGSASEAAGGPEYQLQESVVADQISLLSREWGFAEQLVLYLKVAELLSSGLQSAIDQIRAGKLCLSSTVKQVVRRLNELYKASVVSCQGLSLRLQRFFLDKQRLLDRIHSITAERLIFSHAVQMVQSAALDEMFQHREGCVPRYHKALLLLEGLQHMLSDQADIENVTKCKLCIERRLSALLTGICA
In words: KINOMEscan. The assay is classed as binding. The conditions noted are these: read-out: % Ctrl.

The target in the next assay is T15, ERK2 (Homo sapiens, UniProt P28482).
T15 construct: purchased DiscoveRx KINOMEscan
As to the kind of experiment: KINOMEscan. The assay is classed as binding. The conditions noted are these: read-out: % Ctrl.

For a further assay, the target named is T16, PAK7 (Homo sapiens, UniProt Q9P286).
T16 construct: purchased DiscoveRx KINOMEscan
T16 sequence (Q9P286 whole entry): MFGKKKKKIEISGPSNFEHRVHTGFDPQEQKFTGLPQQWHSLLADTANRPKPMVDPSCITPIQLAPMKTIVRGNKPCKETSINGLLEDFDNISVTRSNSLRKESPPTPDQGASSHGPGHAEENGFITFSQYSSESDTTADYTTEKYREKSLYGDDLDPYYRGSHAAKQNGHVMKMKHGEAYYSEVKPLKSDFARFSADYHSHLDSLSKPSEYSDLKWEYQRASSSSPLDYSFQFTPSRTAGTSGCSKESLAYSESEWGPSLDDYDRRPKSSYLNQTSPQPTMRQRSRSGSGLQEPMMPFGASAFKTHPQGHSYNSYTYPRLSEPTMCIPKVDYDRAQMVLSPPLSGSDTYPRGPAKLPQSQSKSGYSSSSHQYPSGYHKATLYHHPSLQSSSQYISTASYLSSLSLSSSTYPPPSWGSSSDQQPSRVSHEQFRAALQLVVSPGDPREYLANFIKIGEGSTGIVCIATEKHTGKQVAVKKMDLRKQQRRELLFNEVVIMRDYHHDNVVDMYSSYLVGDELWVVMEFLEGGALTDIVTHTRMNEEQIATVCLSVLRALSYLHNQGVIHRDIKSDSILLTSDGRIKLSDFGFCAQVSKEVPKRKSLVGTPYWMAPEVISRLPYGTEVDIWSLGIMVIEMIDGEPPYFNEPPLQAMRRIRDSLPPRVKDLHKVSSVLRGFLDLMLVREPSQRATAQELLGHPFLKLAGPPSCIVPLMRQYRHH
In words: KINOMEscan. Format: binding. The conditions noted are these: read-out: % Ctrl.

The target in assay [3] is T1, HASPIN. As to the kind of experiment: KINOMEscan. The conditions noted are these: read-out: % Ctrl. On the set-up: purchased DiscoveRx KINOMEscan. The assay is classed as binding.

Structures are written as SMILES.

T6 sequence (Q9H422 whole entry): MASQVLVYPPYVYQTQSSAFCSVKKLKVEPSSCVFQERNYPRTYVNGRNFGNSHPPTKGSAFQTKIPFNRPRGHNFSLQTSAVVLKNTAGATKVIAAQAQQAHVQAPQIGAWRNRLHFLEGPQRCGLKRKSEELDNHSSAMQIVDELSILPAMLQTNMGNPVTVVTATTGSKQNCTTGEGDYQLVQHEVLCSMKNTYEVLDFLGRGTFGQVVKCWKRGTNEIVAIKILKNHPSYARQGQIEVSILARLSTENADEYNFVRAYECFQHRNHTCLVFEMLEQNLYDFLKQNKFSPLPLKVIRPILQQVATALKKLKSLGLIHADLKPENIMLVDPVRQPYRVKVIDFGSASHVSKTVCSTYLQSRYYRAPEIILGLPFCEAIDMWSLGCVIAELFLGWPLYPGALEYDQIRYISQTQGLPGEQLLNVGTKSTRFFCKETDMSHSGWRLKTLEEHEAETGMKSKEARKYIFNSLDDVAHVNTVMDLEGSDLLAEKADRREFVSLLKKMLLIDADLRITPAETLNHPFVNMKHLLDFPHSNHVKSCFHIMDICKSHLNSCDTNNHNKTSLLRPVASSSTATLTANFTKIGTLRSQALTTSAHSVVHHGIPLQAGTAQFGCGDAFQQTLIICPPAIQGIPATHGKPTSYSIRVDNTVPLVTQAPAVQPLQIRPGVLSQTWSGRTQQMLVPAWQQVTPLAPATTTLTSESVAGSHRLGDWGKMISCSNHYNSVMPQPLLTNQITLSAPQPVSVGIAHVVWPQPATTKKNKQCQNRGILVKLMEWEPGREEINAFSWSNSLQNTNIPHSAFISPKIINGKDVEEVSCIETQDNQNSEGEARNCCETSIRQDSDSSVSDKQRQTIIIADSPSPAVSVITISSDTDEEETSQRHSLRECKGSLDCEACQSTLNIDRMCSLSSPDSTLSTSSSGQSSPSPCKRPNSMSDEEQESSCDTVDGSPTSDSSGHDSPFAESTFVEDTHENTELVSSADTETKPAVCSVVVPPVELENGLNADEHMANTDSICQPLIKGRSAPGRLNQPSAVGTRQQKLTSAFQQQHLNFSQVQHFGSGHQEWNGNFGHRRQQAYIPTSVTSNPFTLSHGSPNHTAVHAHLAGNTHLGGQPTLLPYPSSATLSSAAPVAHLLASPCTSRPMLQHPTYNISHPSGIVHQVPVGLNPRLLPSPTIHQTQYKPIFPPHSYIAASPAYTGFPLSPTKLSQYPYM

Take `COc1nc2ccc(NCC3CCN(C)CC3)nn2c1C(=O)Nc1cccc(OC(F)(F)F)c1` [Cpd 1]: the “tumor formation / growth from pre-treated cells” value in assay [1] is reported as “complete inhibition in tumor formation”. This compound also gave an IC50 against HASPIN [2] of over 10000 nM.

As to `CN1CCC(CNc2ccc3ncc(C(=O)Nc4cccc(OC(F)(F)F)c4)n3n2)CC1` [Cpd 2], the “tumor formation / growth from pre-treated cells” value in [1] is “reduced”. In addition, the remaining binding at 1 µM on PCTK3 came out at 100%; on ABL1(T315I)-P, 100%; on PIKFYVE it was 45%; at PKAC-alpha, 99%; on HIPK3 it was 100%; at AURKC, 95%. The remaining binding at 1 µM is 99% on PRKCH; 99% at RIOK2; 97% at RSK1(KD1-N-t.); 100% on CLK4; 100% at TBK1; 100% at TNNI3K. Moreover, the remaining binding at 1 µM on ULK1 worked out at 98%; at ERK2, 100%; at PAK7, 90%; at HASPIN [3], 30%. On HASPIN [2] (kinase orthogonal assay), this compound showed an IC50 of 915 nM.
